Data reported in patent EP0644191A1, “PYRIDINE COMPOUND AND MEDICINAL USE THEREOF” (YOSHITOMI PHARMACEUTICAL INDUSTRIES, LTD., priority 1992, dated 1993).
In brackets after ≈: the same amount, converted by molar mass.

Legend:
[1] = system: Helicobacter pylori; assay: Antibacterial activity (in vitro), agar plate dilution method, clinical isolates (18 strains); type: cell-based; conditions: 18 clinical isolates, 37°C, 8% CO₂, 3-4 days
Procedure: Antibacterial activity (in vitro) of the compound of the present invention against Helicobacter pylori was determined by the following agar plate dilution method. […] The cultures were diluted with Brucella broth to give a concentration of approximately 10⁶ cell/ml. The diluted bacterial solution was spot inoculated with a microplanter on an agar plate containing 2-fold dilution concentration series of the test compound. The cells were incubated at 37°C under 8% CO₂ for 3-4 days. The minimum inhibitory concentration (MIC) in respective strains was determined, based on which MIC₅₀ and MIC₉₀ were calculated.

[2] = system: Escherichia coli NIHJ JC-2; assay: Antibacterial spectrum, agar plate dilution MIC; type: cell-based; conditions: NIHJJC2, 37°C, 8% CO₂, 3-4 days
Procedure: (§1) The test bacterium precultured in Muller-Hinton liquid medium was diluted with the same medium to give a bacterial solution of about 10⁶ cell/ml for inoculation. The dilute bacterial solution was spot inoculated with a microplanter on an agar plate containing 2-fold dilution concentration series of the test compound and the cells were incubated at 37°C under 8% CO₂ for 3-4 days. The minimum inhibitory concentration (MIC) in respective strains was determined, based on which MIC was calculated.

[3] = system: Pseudomonas aeruginosa IFO 12582; assay: Antibacterial spectrum, agar plate dilution MIC; type: cell-based; conditions: IFO12582, 37°C, 8% CO₂, 3-4 days, read-out: MIC P. aeruginosa
Procedure: as §1

[4] = system: Staphylococcus aureus FDA 209P; assay: Antibacterial spectrum, agar plate dilution MIC; type: cell-based; conditions: FDA209P, 37°C, 8% CO₂, 3-4 days, read-out: MIC S. aureus
Procedure: as §1

[5] = system: Candida albicans IFO 1060; assay: Antifungal spectrum, agar plate dilution MIC; type: cell-based; conditions: IFO1060, 37°C, 8% CO₂, 3-4 days
[6] = Aspirin/hydrochloric acid-induced gastric ulcer in rats; type: in vivo; conditions: for Ulcer index (mean±standard deviation): 30 min before aspirin 100 mg/kg, stomach removed 4 hours later, control 5.0±0.51; for Change (%): change of ulcer index versus control
Procedure: Male rats weighing about 200 g (16 rats per group) were fasted for 20 hours and the test solution was orally administered to the rats. Thirty minutes later, aspirin (100 mg/kg) containing 0.3N hydrochloric acid was orally administered.
Four hours later, the stomach was removed and the area which developed ulcer was examined. A square root of the total ulcer area was taken as an ulcer index.

[7] = Acute toxicity in mice, observed for 5 days; type: in vivo
Excerpt: As a result, no death case was found.

| Compound | MIC50 [1] | MIC90 [1] | MIC [2] | MIC [3] | MIC [4] | MIC [5] | Ulcer index (mean±standard deviation) ([6]; 10 mg/kg p.o.) | Change (%) ([6]; 10 mg/kg p.o.) | Ulcer index (mean±standard deviation) ([6]; 30 mg/kg p.o.) | Change (%) ([6]; 30 mg/kg p.o.) | death ([7]; intraperitoneally 300 mg/kg) | death ([7]; orally 1000 mg/kg) |
| --- | --- | --- | --- | --- | --- | --- | --- | --- | --- | --- | --- | --- |
| Cc1c(SCCN2CCOCC2)ccnc1CSc1nc2ccccc2[nH]1 [Example 1, 2-(3-methyl-4-(2-morpholinoethylthio)-2-pyridyl)methylthio-1H-benzimidazole] | ≤ 0.006 µg/mL | 0.012 µg/mL (≈ 0.03 µM) | > 100 µg/mL | > 100 µg/mL | > 100 µg/mL | > 100 µg/mL | 3.1±0.33 | -37% | 2.3±0.49 | -55% | – | – |
| Cc1c(SCCN2CCc3ccccc3C2)ccnc1CSc1nc2ccccc2[nH]1 [Example 2, 2-(3-methyl-4-(2-(1,2,3,4-tetrahydroisoquinolin-2-yl)ethylthio)-2-pyridyl)methylthio-1H-benzimidazole] | ≤ 0.006 µg/mL | ≤ 0.006 µg/mL | > 100 µg/mL | > 100 µg/mL | > 100 µg/mL | > 100 µg/mL | – | – | – | – | no death case | no death case |
| Cc1c(SCCN(C)Cc2ccccc2)ccnc1CSc1nc2ccccc2[nH]1 [Example 3] | 0.025 µg/mL (≈ 0.0575 µM) | 0.05 µg/mL (≈ 0.115 µM) | > 100 µg/mL | > 100 µg/mL | > 100 µg/mL | > 100 µg/mL | – | – | – | – | – | – |
| Cc1c(SC2CCN(Cc3ccccc3)CC2)ccnc1CSc1nc2ccccc2[nH]1 [Example 7, 2-(4-(1-benzyl-4-piperidyl)thio-3-methyl-2-pyridyl)methylthio-1H-benzimidazole] | 0.012 µg/mL (≈ 0.026 µM) | 0.025 µg/mL (≈ 0.0543 µM) | > 100 µg/mL | > 100 µg/mL | > 100 µg/mL | > 100 µg/mL | – | – | – | – | – | – |
| Cc1c(SCCN2CCc3ccccc3C2)ccnc1CSc1nc2ncccc2[nH]1 [Example 12, 2-((3-methyl-4-(2-(1,2,3,4-tetrahydroisoquinolin-2-yl)ethylthio)-2-pyridyl)methylthio)imidazo[5,4-b]pyridine] | 0.012 µg/mL (≈ 0.0268 µM) | 0.025 µg/mL (≈ 0.0558 µM) | – | – | – | – | – | – | – | – | – | – |
| Cc1c(SCC[N+]2([O-])CCOCC2)ccnc1CSc1nc2ccccc2[nH]1 [Example 28, 4-(2-((2-(1H-benzimidazol-2-yl)thiomethyl-3-methyl-4-pyridyl)thio)ethyl)morpholine N-oxide] | 0.025 µg/mL (≈ 0.06 µM) | 0.025 µg/mL (≈ 0.06 µM) | > 100 µg/mL | > 100 µg/mL | > 100 µg/mL | > 100 µg/mL | – | – | – | – | – | – |
| Cc1c(OCCN2CCc3ccccc3C2)ccnc1CSc1nc2ccccc2[nH]1 [Ref. Compound 1, 2-(3-methyl-4-(2-(1,2,3,4-tetrahydroisoquinolin-2-yl)ethoxy)-2-pyridyl)methylthio-1H-benzimidazole, reference compound] | 0.05 µg/mL (≈ 0.116 µM) | 0.1 µg/mL (≈ 0.232 µM) | – | – | – | – | – | – | – | – | – | – |
| Cc1c(OCCN(C)Cc2ccccc2)ccnc1C[S+]([O-])c1nc2ccccc2[nH]1 (centres unmarked) [Ref. Compound 2, 2-(3-methyl-4-(2-(N-benzyl-N-methylamino)ethoxy)-2-pyridyl)methylsulfinyl-1H-benzimidazole, reference compound] | 0.1 µg/mL (≈ 0.23 µM) | 0.2 µg/mL (≈ 0.46 µM) | – | – | – | – | – | – | – | – | – | – |
| Cc1c(OCCN2CCc3ccccc3C2)ccnc1C[S+]([O-])c1nc2ccccc2[nH]1 (centres unmarked) [Ref. Compound 3, 2-(3-methyl-4-(2-(1,2,3,4-tetrahydroisoquinolin-2-yl)ethoxy)-2-pyridyl)methylsulfinyl-1H-benzimidazole, reference compound] | 0.05 µg/mL (≈ 0.112 µM) | 0.1 µg/mL (≈ 0.224 µM) | – | – | – | – | – | – | – | – | – | – |
